The numbers were not newly measured in PubChem BioAssay AID1259409 (Chemical Carcinogenesis Research Information System (CCRIS), 2018), which cites them from elsewhere.

The data set concerns rodent chemically induced tumor inhibition, incidence and multiplicity. Description: CCRIS tumor inhibitor studies. The note with it: Route [Inhibitor]: ORAL.

The structures appear in SMILES notation. Where “and” joins values, the source holds several entries; their conditions need not be identical. Equal values may be shown once.

As for `[Se]`, the “tumour outcome (control, treated, inhibition, significance)” value is recorded as 94%, 81%, 14%, not significant (Carcinogen: 1,2-DIMETHYLHYDRAZINE, 540-73-8, Dose [Inhibitor]: 0, 0.2, 5 PPM IN DIET BEGINNING 1 D PRIOR TO CARCINOGEN TREATMENT AND CONTINUING FOR DURATION OF STUDY (STUDY DURATION:, Dose [Inhibitor]: 0, 0.2, 5 PPM IN DIET BEGINNING 1 D PRIOR TO CARCINOGEN TREATMENT AND CONTINUING FOR DURATION OF STUDY (STUDY DURATION:, Species: RAT, Strain/Sex: SPRAGUE-DAWLEY/MALE, Target Tissue: Type of Lesion: DISTAL COLON: ADENOCARCINOMA, Dose [Carcinogen]: 20 MG/KG 1/WK FOR 20 WK, Promoter: NONE USED); 3/10 (30%), 0/11 (0%), 100%, not significant (Carcinogen: 3,2'-DIMETHYL-4-AMINOBIPHENYL, 13394-86-0, Dose [Inhibitor]: 0, 2 PPM IN BASAL DIET BEGINNING POST CARCINOGEN TREATMENT AND CONTINUING FOR 40 WK (STUDY DURATION: 60 WK), Species: RAT, Strain/Sex: F344/MALE, Target Tissue: Type of Lesion: LARGE INTESTINE: ADENOMA AND CARCINOMA, Dose [Carcinogen]: 50 MG/KG 1/2 WK FOR 20 WK TO RATS MAINTAINED ON ETHINYL ESTRADIOL CONTAINING DIET (0.75 PPM) FOR 1 WK CYCLED WITH ETHINY, Promoter: ETHINYL ESTRADIOL, 57-63-6); 4/10 (40%), 4/11 (36%), 10%, not significant (Carcinogen: 3,2'-DIMETHYL-4-AMINOBIPHENYL, 13394-86-0, Dose [Inhibitor]: 0, 2 PPM IN BASAL DIET BEGINNING POST CARCINOGEN TREATMENT AND CONTINUING FOR 40 WK (STUDY DURATION: 60 WK), Species: RAT, Strain/Sex: F344/MALE, Target Tissue: Type of Lesion: PANCREAS: ACINAR CELL NODULE, Dose [Carcinogen]: 50 MG/KG 1/2 WK FOR 20 WK TO RATS MAINTAINED ON ETHINYL ESTRADIOL CONTAINING DIET (0.75 PPM) FOR 1 WK CYCLED WITH ETHINY, Promoter: ETHINYL ESTRADIOL, 57-63-6); 5/10 (50%), 6/11 (55%), -10%, not significant (Carcinogen: 3,2'-DIMETHYL-4-AMINOBIPHENYL, 13394-86-0, Dose [Inhibitor]: 0, 2 PPM IN BASAL DIET BEGINNING POST CARCINOGEN TREATMENT AND CONTINUING FOR 40 WK (STUDY DURATION: 60 WK), Species: RAT, Strain/Sex: F344/MALE, Target Tissue: Type of Lesion: PREPUTIAL GLAND: ADENOMA AND CARCINOMA, Dose [Carcinogen]: 50 MG/KG 1/2 WK FOR 20 WK TO RATS MAINTAINED ON ETHINYL ESTRADIOL CONTAINING DIET (0.75 PPM) FOR 1 WK CYCLED WITH ETHINY, Promoter: ETHINYL ESTRADIOL, 57-63-6); 2/10 (20%), 2/11 (18%), 10%, not significant (Carcinogen: 3,2'-DIMETHYL-4-AMINOBIPHENYL, 13394-86-0, Dose [Inhibitor]: 0, 2 PPM IN BASAL DIET BEGINNING POST CARCINOGEN TREATMENT AND CONTINUING FOR 40 WK (STUDY DURATION: 60 WK), Species: RAT, Strain/Sex: F344/MALE, Target Tissue: Type of Lesion: SMALL INTESTINE: ADENOMA AND ADENOCARCINOMA, Dose [Carcinogen]: 50 MG/KG 1/2 WK FOR 20 WK TO RATS MAINTAINED ON ETHINYL ESTRADIOL CONTAINING DIET (0.75 PPM) FOR 1 WK CYCLED WITH ETHINY, Promoter: ETHINYL ESTRADIOL, 57-63-6); 1/10 (10%), 0/11 (0%), 100%, not significant (Carcinogen: 3,2'-DIMETHYL-4-AMINOBIPHENYL, 13394-86-0, Dose [Inhibitor]: 0, 2 PPM IN BASAL DIET BEGINNING POST CARCINOGEN TREATMENT AND CONTINUING FOR 40 WK (STUDY DURATION: 60 WK), Species: RAT, Strain/Sex: F344/MALE, Target Tissue: Type of Lesion: SUBCUTIS: TUMOR, Dose [Carcinogen]: 50 MG/KG 1/2 WK FOR 20 WK TO RATS MAINTAINED ON ETHINYL ESTRADIOL CONTAINING DIET (0.75 PPM) FOR 1 WK CYCLED WITH ETHINY, Promoter: ETHINYL ESTRADIOL, 57-63-6). The “tumour outcome (control, treated, inhibition, significance)” value runs as follows: (Carcinogen: 3,2'-DIMETHYL-4-AMINOBIPHENYL, 13394-86-0, Dose [Inhibitor]: 0, 2 PPM IN BASAL DIET BEGINNING POST CARCINOGEN TREATMENT AND CONTINUING FOR 40 WK (STUDY DURATION: 60 WK), Species: RAT, Strain/Sex: F344/MALE, Target Tissue: Type of Lesion: ZYMBAL GLAND: ADENOMA AND CARCINOMA, Dose [Carcinogen]: 50 MG/KG 1/2 WK FOR 20 WK TO RATS MAINTAINED ON ETHINYL ESTRADIOL CONTAINING DIET (0.75 PPM) FOR 1 WK CYCLED WITH ETHINY, Promoter: ETHINYL ESTRADIOL, 57-63-6) 2/10 (20%), 2/11 (18%), 10%, not significant; (Carcinogen: 3,2-DIMETHYL-4-AMINOBIPHENYL, 13394-86-0, Dose [Inhibitor]: 0, 2 PPM IN BASAL DIET BEGINNING POST CARCINOGEN TREATMENT AND CONTINUING FOR 40 WK (STUDY DURATION: 60 WK), Species: RAT, Strain/Sex: F344/MALE, Target Tissue: Type of Lesion: PROSTATE: CARCINOMA, Dose [Carcinogen]: 50 MG/KG 1/2 WK FOR 20 WK TO RATS MAINTAINED ON ETHINYL ESTRADIOL CONTAINING DIET (0.75 PPM) FOR 1 WK CYCLED WITH ETHINY, Promoter: ETHINYL ESTRADIOL, 57-63-6) 5/10 (50%), 4/11 (36%), 28%, not significant; (Carcinogen: DINITROSOPIPERAZINE, 140-79-4, Dose [Inhibitor]: 0, 2 UG/G DIET IN YEAST CONCURRENTLY WITH CARCINOGEN AND CONTINUED FOR STUDY DURATION (STUDY DURATION: 13.5 MO), Species: RAT, Strain/Sex: CD-1/MALE, FEMALE, Target Tissue: Type of Lesion: NASAL PHARYNX: CARCINOMA, Dose [Carcinogen]: 1.5 MG IN WATER 2/WK FOR 5 WK FOLLOWED BY 3 MG IN WATER 2/WK FOR 17.5 WK (TOTAL DOSE: 120 MG)) 5/31(16%), 1/22(5%), 69%, p 0.025; (Carcinogen: NONE USED, Dose [Inhibitor]: 0.5 PPM IN DRINKING WATER DAILY FOR DURATION OF STUDY (STUDY DURATION: 2 YR), Species: MOUSE, Strain/Sex: C3H/FEMALE, Target Tissue: Type of Lesion: MAMMARY GLAND: ADENOCARCINOMA, Promoter: NONE USED) 64%, 25%, 61%, p<0.01; (Carcinogen: NONE USED, Dose [Inhibitor]: 2 PPM IN A 10% BUTTER DIET DAILY FOR DURATION OF STUDY (STUDY DURATION: 2 YR), Species: MOUSE, Strain/Sex: C3H/FEMALE, Target Tissue: Type of Lesion: MAMMARY GLAND: ADENOCARCINOMA, Promoter: NONE USED) 65%, 72%, -11%, not significant; (Carcinogen: NONE USED, Dose [Inhibitor]: 2 PPM IN A 10% CORN OIL DIET DAILY FOR DURATION OF STUDY (STUDY DURATION: 2 Y R), Species: MOUSE, Strain/Sex: C3H/FEMALE, Target Tissue: Type of Lesion: MAMMARY GLAND: ADENOCARCINOMA, Promoter: NONE USED) 70%, 72%, -3%, not significant. Further, the “tumour outcome (control, treated, inhibition, significance)” value is 53%, 52%, 2%, not significant (Carcinogen: NONE USED, Dose [Inhibitor]: 2 PPM IN A 10% LARD DIET DAILY FOR DURATION OF STUDY (STUDY DURATION: 2 YR), Species: MOUSE, Strain/Sex: C3H/FEMALE, Target Tissue: Type of Lesion: MAMMARY GLAND: ADENOCARCINOMA, Promoter: NONE USED); 63%, 65%, -3%, not significant (Carcinogen: NONE USED, Dose [Inhibitor]: 2 PPM IN A 10% RAPE SEED OIL DIET DAILY FOR DURATION OF STUDY (STUDY DURATION : 2 YR), Species: MOUSE, Strain/Sex: C3H/FEMALE, Target Tissue: Type of Lesion: MAMMARY GLAND: ADENOCARCINOMA, Promoter: NONE USED); 44%, 40%, 9%, not calculated and 64%, 25%, 61%, p<0.01 (Carcinogen: NONE USED, Dose [Inhibitor]: 2 PPM IN DRINKING WATER DAILY FOR DURATION OF STUDY (STUDY DURATION: 2 YR), Species: MOUSE, Strain/Sex: C3H/FEMALE, Target Tissue: Type of Lesion: MAMMARY GLAND: ADENOCARCINOMA, Promoter: NONE USED).
